Experiments:
Format in all cases: in vivo
[1] = tested on: neuropathic TRAP^hM4 mice; assay: Two-chamber thermal escape-avoidance (cold place aversion) assay; conditions: floor of one chamber cooled from 30° to 10° C.
Experimental: To evaluate neuropathic adaptive cool/cold avoidance behavior, mice with SNI freely explored a two-temperature choice chamber. The chamber was constructed from adjoining two thermal plates (Bioseb): one reference plate set at 30° C., and a test plate with the temperature adjusted to either 30, 25, 20, 15, or 10° C. for independent trials. The test plate temperature order was randomized for each trial within the day. The chamber (white opaque plastic with no distinguishing features and no divider, 30.48×15.24×15.24 cm) was fitted onto the conjoined plates. At Day 56 post SNI and at 30-min post CNO injection, we placed mice on the reference plate facing the back wall. Mice then freely explored the chamber for 5 min, while an overhead camera recorded the chamber position and locomotion. After each trial, the mouse was returned to the holding cylinder, while the test plate temperature was rapidly cooled or heated to the next randomly assigned temperature trial. This procedure was repeated until all temperature trials were collected (6 temperature trials total). Video files for each trial were later analyzed using automated tracking software (Ethovision, Noldus) for path tracking, time spent on the test plate, and number of entries onto the test plate.

[2] = tested on: control neuropathic mice; assay: Pain behaviors in control neuropathic mice not expressing hM4-mCherry in the BLA; conditions: absence of hM4 expression, CNO 10 mg/kg, morphine as positive control
Text: To induce a chronic pain state, we used a modified version of the Spared Nerve Injury (SNI) model of neuropathic pain, as previously described (70). This model entails surgical section of two of the sciatic nerve branches (common peroneal and tibial branches) while sparing the third (sural branch). […] To perform this peripheral nerve injury procedure, anesthesia was induced and maintained throughout surgery with isoflurane (4% induction, 1.5% maintenance in oxygen). The left hind leg was shaved and wiped clean with alcohol and betadine. We made a 1-cm incision in the skin of the mid-dorsal thigh, approximately where the sciatic nerve trifurcates. The biceps femoris and semimembranosus muscles were gently separated from one another with blunt scissors, thereby creating a <1-cm opening between the muscle groups to expose the common peroneal, tibial, and sural branches of the sciatic nerve. Next, −2 mm of both the common peroneal and tibial nerves were transected and removed, without suturing and with care not to distend the sural nerve. The leg muscles are left uncultured and the skin was closed with tissue adhesive (3M Vetbond), followed by a Betadine application. During recovery from surgery, mice were placed under a heat lamp until awake and achieved normal balanced movement. Mice were then returned to their home cage and closely monitored over the following three days for well-being.
To evaluate mechanical reflexive sensitivity, we used a logarithmically increasing set of 8 von Frey filaments (Stoelting), ranging in gram force from 0.07- to 6.0-g (93). These filaments were applied perpendicular to the plantar hindpaw with sufficient force to cause a slight bending of the filament. […] Using the Up-Down statistical method, the 50% withdrawal mechanical threshold scores were calculated for each mouse and then averaged across the experimental groups. The response frequency was calculated as the number of positive responses out of 10 stimulations, delivered at 30-s intervals.
(§1) To evaluate affective-motivational responses evoked by thermal stimulation (81), we applied either a single, unilateral 50-μL drop of water (5, 30, or 55° C.) or acetone (evaporative cooling) to the left hindpaw, and the duration of attending behavior was collected for up to 60 s after the stimulation. […] The track was subdivided into 25 temperature zones (4.8-cm D per zone), and we assessed the temperature at the center of each zone by a K-probe thermocouple. […] A video camera placed above the track recorded the position of the mouse within the temperature zones, and videos were later analyzed using a video-tracking software (Etho-vision, Noldus) for duration of zone occupancy, zone visits, distance, velocity, and acceleration.

[3] = tested on: control mice expressing eYFP in the BLA nociceptive ensemble; assay: Pain behaviors in control mice expressing eYFP in the BLA nociceptive ensemble (no hM4)
Experimental: For chemogenetic activity manipulation of BLA neuronal ensembles, we intracranially injected 100 nL of either AAV5-hSyn-DIO-hM4-mCherry (U. North Carolina Viral Core; titre: 3.98×1012), AAV5-hSyn-DIO-mCherry (U. North Carolina Viral Core; titre: 4.72×1012), AAVDJ-Ef1a-DIO-eYFP (Stanford Viral Core; titre: 2.65×1011) into both the left and right BLA at coordinates AP: −1.20 mm, ML: ±3.1 mm, DV: −4.60 mm.
To evaluate mechanical reflexive sensitivity, we used a logarithmically increasing set of 8 von Frey filaments (Stoelting), ranging in gram force from 0.07- to 6.0-g (93). These filaments were applied perpendicular to the plantar hindpaw with sufficient force to cause a slight bending of the filament. A positive response was characterized as a rapid withdrawal of the paw away from the stimulus within 4 s. Using the Up-Down statistical method, the 50% withdrawal mechanical threshold scores were calculated for each mouse and then averaged across the experimental groups. The response frequency was calculated as the number of positive responses out of 10 stimulations, delivered at 30-s intervals.
To evaluate affective-motivational responses evoked by mechanical stimulation, we used three von Frey filaments (0.07-g, 0.4-g, and 2.0-g) and a sharp 25G syringe needle (pin prick) (94). […]
as §1

[4] = CNO 10 mg/kg, AAVDJ-Ef1α-DIO-eYFP control mice

C[N+]1([O-])CCN(C2=Nc3cc(Cl)ccc3Nc3ccccc32)CC1 [CNO, clozapine-N-oxide]
preference between cold and neutral temperature chambers [1]: near-total indifference
affective-motivational behaviors ([2]; acetone drop): Lack of effect
reflex behaviors ([2]; von Frey filaments): Lack of effect
affective-motivational behaviors [3, 4]: Lack of effect
reflexive behaviors [3, 4]: Lack of effect
pain behaviors ([3]; CNO alone, control mice): had no effect

Source: US20210220489A1, “AMYGDALAR NEURAL ENSEMBLE THAT ENCODES THE UNPL[…] PAIN” (The Board of Trustees of the Leland Stanford Junior …, priority 2020, published 2021)
